From ChEMBL document CHEMBL1152832, “Quantitative structure-activity relationship (QSAR) of aryl alkenyl amides/imines for bacterial efflux pump inhibitors” (2009)
Converted amounts (≈) assume the structure as drawn. The source made the active and inactive calls. The calls are words filed in the database; no cut-off is given here.

Tests used:
Staphylococcus aureus [1] = assay: Inhibition of multidrug resistance efflux pump in Staphylococcus aureus ATCC 29213 assessed as potentiation factor measured by reduction in weighted average of ciprofloxacin MIC by serial dilution method
Staphylococcus aureus [2] = assay: microbe, parasite or virus in culture; settings: ATCC 29213, 24 h
Description: Antibacterial activity against Staphylococcus aureus ATCC 29213 after 24 hrs

## CCCCC(/C=N/C(CC)CO)=C\c1ccc(OC)cc1 (stereo not drawn)
Staphylococcus aureus [1]
  PF: 100
  logPF: 2

## COc1cc(/C=C(C)/C=C/C(=O)N2CCCCC2)ccc1O
Staphylococcus aureus [1]
  PF: 10
  logPF: 1

## CCCCC(/C=C/C(=O)N1CCCCC1)=C\c1ccc2c(c1)OCO2
Staphylococcus aureus [1]
  PF: 200
  logPF: 2.3

## CC(/C=C/C(=O)O)=C\c1ccc2c(c1)OCO2
Staphylococcus aureus [1]
  PF: 10
  logPF: 1

## CCC(/C=C/C(=O)N1CCCCC1)=C\c1ccc2c(c1)OCO2
Staphylococcus aureus [1]
  PF: 240
  logPF: 2.38

## CCC(/C=C/C(=O)O)=C\c1ccc2c(c1)OCO2
Staphylococcus aureus [1]
  PF: 10
  logPF: 1

## CC(/C=C/C(=O)N1CCOCC1)=C\c1ccc2c(c1)OCO2
Staphylococcus aureus [1]
  PF: inactive
  logPF: inactive

## CCC(/C=C/C(=O)NCC(C)C)=C\c1ccc2c(c1)OCO2
Staphylococcus aureus [1]
  PF: 270
  logPF: 2.43

## O=C(O)c1cn(C2CC2)c2cc(N3CCNCC3)c(F)cc2c1=O [CIPROFLOXACIN]
Staphylococcus aureus [2]
  MIC: 0.25 µg/mL (≈ 0.754 µM)

## CC(/C=C/C(=O)N1CCN(C)CC1)=C\c1ccc2c(c1)OCO2
Staphylococcus aureus [1]
  PF: 130
  logPF: 2.11

## CCC(CCC(=O)NCC(C)C)Cc1ccc2c(c1)OCO2 (stereo not drawn)
Staphylococcus aureus [1]
  PF: 70
  logPF: 1.85

## CCCC(/C=C/C(=O)N1CCCCC1)=C\c1ccc(OC)cc1
Staphylococcus aureus [1]
  PF: 210
  logPF: 2.32

## CCC(/C=C/C(=O)N[C@@](C)(O)c1ccccc1)=C\c1ccc2c(c1)OCO2
Staphylococcus aureus [1]
  PF: 30
  logPF: 1.48

## CCC(/C=C/C(=O)N1CCC(O)CC1)=C\c1ccc2c(c1)OCO2
Staphylococcus aureus [1]
  PF: 210
  logPF: 2.32

## CCCC(/C=C/C(=O)N1CCN(C)CC1)=C\c1ccc(OC)cc1
Staphylococcus aureus [1]
  PF: 130
  logPF: 2.11

## O=C(/C=C/C=C/c1ccc2c(c1)OCCO2)N1CCOCC1
Staphylococcus aureus [1]
  PF: 40
  logPF: 1.6

## CCOC(=O)/C=C/C(C)=C/c1ccc2c(c1)OCO2
Staphylococcus aureus [1]
  PF: inactive
  logPF: inactive

## CCC(/C=C/C(=O)Nc1ccccc1C)=C\c1ccc2c(c1)OCO2
Staphylococcus aureus [1]
  PF: 60
  logPF: 1.78

## CC(/C=C/C(=O)N1CCCCC1)=C\c1ccc2c(c1)OCO2
Staphylococcus aureus [1]
  PF: 180
  logPF: 2.25

## CC(/C=C/C(=O)N1CCC(O)CC1)=C\c1ccc2c(c1)OCO2
Staphylococcus aureus [1]
  PF: 210
  logPF: 2.32

## CCC(/C=C/C(=O)Nc1ccccc1)=C\c1ccccc1
Staphylococcus aureus [1]
  PF: 210
  logPF: 2.32

## COc1ccc(/C=C(C)/C=C/C(=O)N2CCCCC2)cc1
Staphylococcus aureus [1]
  PF: 130
  logPF: 2.11

## CC(=O)CNC(=O)CC(=O)/C=C/C(C)=C/c1ccc2c(c1)OCO2
Staphylococcus aureus [1]
  PF: 310
  logPF: 2.49

## CCCC(/C=C/C(=O)N1CCN(C)CC1)=C\c1ccc2c(c1)OCO2
Staphylococcus aureus [1]
  PF: 60
  logPF: 1.78

## CCCCCCC(/C=C/C(=O)N1CCCCC1)=C\c1ccc(OC)cc1
Staphylococcus aureus [1]
  PF: 130
  logPF: 2.11

## COC(=O)/C=C/C(C)=C/c1ccc2c(c1)OCO2
Staphylococcus aureus [1]
  PF: inactive
  logPF: inactive

## CCC(/C=C/CN1CCCCC1)=C\c1ccc2c(c1)OCO2
Staphylococcus aureus [1]
  PF: 70
  logPF: 1.85

## CCC(/C=C/C(=O)Nc1ccccc1OC)=C\c1ccc2c(c1)OCO2
Staphylococcus aureus [1]
  PF: 60
  logPF: 1.78

## CCC(/C=C/C(=O)NCC(=O)OC)=C\c1ccc2c(c1)OCO2
Staphylococcus aureus [1]
  PF: 290
  logPF: 2.46

## CC/C=C/C(=C/c1ccc2c(c1)OCO2)CC
Staphylococcus aureus [1]
  PF: 20
  logPF: 1.3

## CC(/C=C/C(=O)N1CCCC1)=C\c1ccc2c(c1)OCO2 (stereo in doubt; 12)
Staphylococcus aureus [1]
  PF: 130
  logPF: 2.11

## CCCC(/C=C/C(=O)O)=C\c1ccc2c(c1)OCO2
Staphylococcus aureus [1]
  PF: inactive
  logPF: inactive

## CCC(CO)NC(=O)/C=C/C(C)=C/c1ccc2c(c1)OCO2 (stereo not drawn)
Staphylococcus aureus [1]
  PF: 30
  logPF: 1.48

## CCC(/C=C/C(=O)N1CCCC1)=C\c1ccc2c(c1)OCO2
Staphylococcus aureus [1]
  PF: 90
  logPF: 1.95

## CCC(CCCC(=O)NCC(=O)NCC(=O)OC)Cc1ccc2c(c1)OCO2 (stereo not drawn)
Staphylococcus aureus [1]
  PF: 70
  logPF: 1.85

## C(/C=C/c1ccc2c(c1)OCO2)=C\CN1CCCCC1
Staphylococcus aureus [1]
  PF: 30
  logPF: 1.48

## CCCC(/C=C/C(=O)N1CCCCC1)=C\c1ccc2c(c1)OCO2
Staphylococcus aureus [1]
  PF: 210
  logPF: 2.32

## CCC(/C=C/C(=O)N1CCCCC1)=C\c1ccc(OC)c(OC)c1
Staphylococcus aureus [1]
  PF: 220
  logPF: 2.34

## CC(/C=C/C(=O)NC(C)c1ccc(Br)cc1)=C\c1ccc2c(c1)OCO2 (stereo not drawn)
Staphylococcus aureus [1]
  PF: 380
  logPF: 2.58

## CCCCC(/C=N/O)=C\c1ccc(OC)cc1
Staphylococcus aureus [1]
  PF: 100
  logPF: 2

## CCC(/C=C/C(=O)NC(C)C=O)=C\c1ccc2c(c1)OCO2 (stereo not drawn)
Staphylococcus aureus [1]
  PF: 30
  logPF: 1.48

## CCC(/C=N/C(CC)CO)=C\c1ccc2c(c1)OCO2 (stereo not drawn)
Staphylococcus aureus [1]
  PF: 150
  logPF: 2.18

## CCCCC(/C=C/C(=O)N1CCC(O)CC1)=C\c1ccc2c(c1)OCO2
Staphylococcus aureus [1]
  PF: 70
  logPF: 1.85

## CCCCC(/C=N/c1ccccc1C(=O)O)=C\c1ccc(OC)cc1
Staphylococcus aureus [1]
  PF: 100
  logPF: 2

## CC(/C=C/C(=O)N1CCCC1)=C\c1ccc2c(c1)OCO2 (stereo in doubt; 3)
Staphylococcus aureus [1]
  PF: 110
  logPF: 2.04

## CCCCC(/C=C/C(=O)N1CCN(C)CC1)=C\c1ccc2c(c1)OCO2
Staphylococcus aureus [1]
  PF: 160
  logPF: 2.2

## CCC(/C=C/C(=O)N1CCN(C)CC1)=C\c1ccc2c(c1)OCO2
Staphylococcus aureus [1]
  PF: 130
  logPF: 2.11
